This is an account of results in paper PMC6818106, “Synthesis of thiazolidin-4-ones and thiazinan-4-ones from 1-(2-aminoethyl)pyrrolidine as acetylcholinesterase inhibitors” (Journal of Enzyme Inhibition and Medicinal Chemistry, 2019).

Some results are limits rather than exact numbers.

Data set [1] addresses T1, AChE (Rattus norvegicus, UniProt P37136).
T1 construct: the use of crude homogenised from rat’s brain structures, as used in the present work; from tissue; host or cells: Wistar rat cerebral cortex, homogenate supernatant
The experiment in a line: In vitro AChE activity (Ellman method) in cerebral cortex homogenate. The format is biochemical. As to conditions: for IC50: rat cerebral cortex homogenate, calculated with GraphPad Prism 5, read-out: IC50 of AChE inhibition, Cortex; for concentration from which AChE activity was inhibited, cerebral cortex: vs control group (water and methanol), p < .05, tested 0.1-250 μM. As to the method: (§1) In vitro was evaluated the potential inhibition of thiazolidin-4-ones and thiazinan-4-ones against AChE activity enzyme in hippocampus and cerebral cortex of Wistar rats (60 days, 250–300 g), since it is well described that these two structures in the brain play an important role in memory. All procedures involving the animals were approved by the Committee of Ethics in Animal Experimentation of UFPel (CEEA 9219). The animals were submitted to euthanasia and the brain was removed. Subsequently, the hippocampus and cerebral cortex were separated and homogenised in buffer Tris HCl 10 mM (pH 7.4). The homogenates were centrifuged at 1800 rpm for 10 min and the supernatant was used for in vitro analyses of the potential inhibitory effect of thiazolidin-4-one and thiazinan-4-ones on AChE activity.
(§2) The compounds were solubilised in methanol and prepared in different concentrations (0.1, 0.5, 1, 5, 10, 25, 50, 100 and 250 μM). […] The thiocholine, in turn, reacts with DTNB to form a chromophore, 5-thio-2-nitrobenzoic, which is quantified spectrophotometrically at 412 nm. The enzymatic activity was expressed in μmols of AcSCh/h/mg protein. Proteins were determined by the method of Bradford[29] using the Coomassie Blue reagent. Bovine albumin was used as standard.

Data set [2] deals with T1, AChE. The experiment in a line: In vitro AChE activity (Ellman method) in hippocampus homogenate. The class given is biochemical. As to conditions: for IC50: rat hippocampus homogenate, calculated with GraphPad Prism 5, read-out: IC50 of AChE inhibition, Hippocampus; for concentration from which AChE activity was inhibited, hippocampus: vs control group (water and methanol), p < .05, tested 0.1-250 μM. As to the method:
as §1, §2

Another data set has as its system cortical astrocytes. The experiment in a line: Cytotoxicity in cortical astrocyte primary culture (MTT cell viability). The format is cell-based. As to conditions: 100 μM, 48 h and 72 h; p > .05. The procedure: In the evaluation of the cytotoxicity of the thiazolidin-4-ones and thiazinan-4-ones in astrocytes, Wistar rats (1–2 days) were used to obtain cortical astrocytes, which were cultured in 96-well plates (3x10^4 per well) and maintained with Dulbecco’s modified Eagle’s medium (DMEM) supplemented with 10% Bovine Foetal Serum (FBS)[30]. Cells were maintained under standard conditions (5% CO2, 37 °C and humidified atmosphere) for 15 days, receiving periodic exchange of culture medium until treatments were received. After time and maturation, the astrocytes were treated with the compounds at the concentration of 100 μM. Cells were exposed to this concentration for 48 h and 72 h. After treatment, cell viability was analysed by the test of 3-(4,5-dimethylthiazol-2yl)-2,5-diphenyltetrazolium bromide (MTT). This method consists of measuring the number of cells with the metabolically active mitochondria, based on the reduction of the tetrazolium salt to the formazan crystals. The absorbance was determined on a microplate reader at 492 nm. The absorbance is linearly proportional to the number of cells with active mitochondria, indicating how many viable cells remained at the end of the treatment.

T1 sequence (P37136 32-614): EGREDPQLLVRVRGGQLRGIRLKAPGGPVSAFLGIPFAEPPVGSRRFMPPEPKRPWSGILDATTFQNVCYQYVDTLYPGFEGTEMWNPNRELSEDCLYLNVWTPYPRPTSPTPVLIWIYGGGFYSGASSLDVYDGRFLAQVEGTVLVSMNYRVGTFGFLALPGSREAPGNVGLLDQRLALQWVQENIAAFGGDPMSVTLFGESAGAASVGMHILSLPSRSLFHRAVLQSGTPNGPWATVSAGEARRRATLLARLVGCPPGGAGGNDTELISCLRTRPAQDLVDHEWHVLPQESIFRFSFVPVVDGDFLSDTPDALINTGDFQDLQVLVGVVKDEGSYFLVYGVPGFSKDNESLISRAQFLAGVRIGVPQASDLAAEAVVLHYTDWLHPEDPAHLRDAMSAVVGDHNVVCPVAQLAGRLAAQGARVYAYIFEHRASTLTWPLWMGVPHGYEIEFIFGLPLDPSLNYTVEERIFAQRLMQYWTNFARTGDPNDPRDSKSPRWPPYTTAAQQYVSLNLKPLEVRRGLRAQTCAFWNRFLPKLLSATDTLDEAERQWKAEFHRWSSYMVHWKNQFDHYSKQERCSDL

With “2-(2-methoxyphenyl)-3-(2-(pyrrolidin-1-yl)ethyl)-1,3-thiazinan-4-one [6l]”, at AChE [1], the IC50 (usually the point on the concentration scale where inhibition reaches its midpoint) is > 250 µM and the “concentration from which AChE activity was inhibited, cerebral cortex” value is ≥ 100 µM. On AChE [2], the IC50 was 84.9 µM and the “concentration from which AChE activity was inhibited, hippocampus” value is ≥ 100 µM.
For `O=C1CSC(c2ccccc2)N1CCN1CCCC1` (centres unmarked) [5a, 2-phenyl-3-(2-(pyrrolidin-1-yl)ethyl)thiazolidin-4-one], the figures for the IC50 at AChE [1] and on AChE [2] were > 250 µM and 30.9 µM, respectively.
The like results for `O=C1CSC(c2ccc(Cl)cc2)N1CCN1CCCC1` (centres unmarked) [5g, 2-(4-chlorophenyl)-3-(2-(pyrrolidin-1-yl)ethyl)thiazolidin-4-one] were, in that order, > 250 µM and > 250 µM.
The like results for `O=C1CSC(c2ccccc2[N+](=O)[O-])N1CCN1CCCC1` (centres unmarked) [5h, 2-(2-nitrophenyl)-3-(2-(pyrrolidin-1-yl)ethyl)thiazolidin-4-one] were, in that order, > 250 µM and 105 µM.
On to `O=C1CSC(c2cccc([N+](=O)[O-])c2)N1CCN1CCCC1` (centres unmarked) [5i, 2-(3-nitrophenyl)-3-(2-(pyrrolidin-1-yl)ethyl)thiazolidin-4-one], for which, at AChE [1], the IC50 is 10.2 µM and the “concentration from which AChE activity was inhibited, cerebral cortex” value is ≥ 10 µM. Also, on AChE [2], the IC50 is 81.6 µM and the “concentration from which AChE activity was inhibited, hippocampus” value was ≥ 10 µM.
In the case of `O=C1CSC(c2ccc([N+](=O)[O-])cc2)N1CCN1CCCC1` (centres unmarked) [5j, 2-(4-nitrophenyl)-3-(2-(pyrrolidin-1-yl)ethyl)thiazolidin-4-one], the “cell viability of astrocyte primary culture (MTT)” value (“cell viability” below) with cortical astrocytes is “did not change de cell viability”. At AChE [1], the IC50 was 28.1 µM and the “concentration from which AChE activity was inhibited, cerebral cortex” value is ≥ 1 µM. On AChE [2], the IC50 is 8.68 µM and the “concentration from which AChE activity was inhibited, hippocampus” value was ≥ 1 µM.
Regarding `Cc1ccc(C2SCC(=O)N2CCN2CCCC2)cc1` (centres unmarked) [5k, 3-(2-(pyrrolidin-1-yl)ethyl)-2-p-tolylthiazolidin-4-one], the IC50 on AChE [1] and at AChE [2] was > 250 µM in each case.
Regarding `COc1ccc(C2SCC(=O)N2CCN2CCCC2)cc1` (centres unmarked) [5n, 2-(4-methoxyphenyl)-3-(2-(pyrrolidin-1-yl)ethyl)thiazolidin-4-one], the IC50 at AChE [1] and at AChE [2] was > 250 µM throughout.
In the case of `O=C1CSC(c2cccc(O)c2)N1CCN1CCCC1` (centres unmarked) [5o, 2-(3-hydroxyphenyl)-3-(2-(pyrrolidin-1-yl)ethyl)thiazolidin-4-one], the IC50 on AChE [1] is 27.6 µM; at AChE [2] it was 30.6 µM.
`O=C1CCSC(c2ccccc2)N1CCN1CCCC1` (centres unmarked) [6a, 2-phenyl-3-(2-(pyrrolidin-1-yl)ethyl)-1,3-thiazinan-4-one]: the “cell viability” value with cortical astrocytes was “did not change de cell viability”. Also, on AChE [1], the IC50 is 7.4 µM and the “concentration from which AChE activity was inhibited, cerebral cortex” value was ≥ 5 µM. In addition, on AChE [2], the 50% inhibitory concentration (IC50) was 5.2 µM and the “concentration from which AChE activity was inhibited, hippocampus” value was ≥ 1 µM.
For `O=C1CCSC(c2ccc(Cl)cc2)N1CCN1CCCC1` (centres unmarked) [6g, 2-(4-chlorophenyl)-3-(2-(pyrrolidin-1-yl)ethyl)-1,3-thiazinan-4-one], the concentration for half-maximal inhibition (IC50) at AChE [1] was 57.2 µM; at AChE [2], 50.5 µM.
In the case of `O=C1CCSC(c2ccccc2[N+](=O)[O-])N1CCN1CCCC1` (centres unmarked) [6h, 2-(2-nitrophenyl)-3-(2-(pyrrolidin-1-yl)ethyl)-1,3-thiazinan-4-one], the “cell viability” value in the data set with cortical astrocytes is listed as “did not change de cell viability”. On AChE [1], the IC50 is 11 µM and the “concentration from which AChE activity was inhibited, cerebral cortex” value is ≥ 1 µM. Further, at AChE [2], the IC50 was 92.8 µM and the “concentration from which AChE activity was inhibited, hippocampus” value is 5 µM.
With `O=C1CCSC(c2cccc([N+](=O)[O-])c2)N1CCN1CCCC1` (centres unmarked) [6i, 2-(3-nitrophenyl)-3-(2-(pyrrolidin-1-yl)ethyl)-1,3-thiazinan-4-one], on AChE [1], the IC50 is 50.6 µM and the “concentration from which AChE activity was inhibited, cerebral cortex” value is ≥ 50 µM. Also, on AChE [2], the concentration for half-maximal inhibition (IC50) was 29.4 µM and the “concentration from which AChE activity was inhibited, hippocampus” value is ≥ 50 µM.
Turning to `O=C1CCSC(c2ccc([N+](=O)[O-])cc2)N1CCN1CCCC1` (centres unmarked) [6j, 2-(4-nitrophenyl)-3-(2-(pyrrolidin-1-yl)ethyl)-1,3-thiazinan-4-one], the “cell viability” value with cortical astrocytes was “did not change de cell viability”. Further, at AChE [1], the IC50 is 40.1 µM and the “concentration from which AChE activity was inhibited, cerebral cortex” value is ≥ 10 µM. Moreover, on AChE [2], the IC50 is 9.32 µM and the “concentration from which AChE activity was inhibited, hippocampus” value was ≥ 1 µM.
Consider `Cc1ccc(C2SCCC(=O)N2CCN2CCCC2)cc1` (centres unmarked) [6k, 3-(2-(pyrrolidin-1-yl)ethyl)-2-(p-tolyl)-1,3-thiazinan-4-one], for which the “cell viability” value with cortical astrocytes is “did not change de cell viability”. Besides, on AChE [1], the IC50 was 6.83 µM and the “concentration from which AChE activity was inhibited, cerebral cortex” value is ≥ 5 µM. In addition, at AChE [2], the IC50 is 4.46 µM and the “concentration from which AChE activity was inhibited, hippocampus” value was ≥ 1 µM.
Consider `COc1cccc(C2SCCC(=O)N2CCN2CCCC2)c1` (centres unmarked) [6m, 2-(3-methoxyphenyl)-3-(2-(pyrrolidin-1-yl)ethyl)-1,3-thiazinan-4-one], for which, on AChE [1], the 50% inhibitory concentration (IC50) was 24 µM and the “concentration from which AChE activity was inhibited, cerebral cortex” value is ≥ 25 µM. At AChE [2], the IC50 was 90.3 µM.
Turning to `COc1ccc(C2SCCC(=O)N2CCN2CCCC2)cc1` (centres unmarked) [6n, 2-(4-methoxyphenyl)-3-(2-(pyrrolidin-1-yl)ethyl)-1,3-thiazinan-4-one], the “cell viability” value with cortical astrocytes is “did not change de cell viability”. Further, at AChE [1], the 50% inhibitory concentration (IC50) is 22.2 µM and the “concentration from which AChE activity was inhibited, cerebral cortex” value is ≥ 5 µM. Moreover, the IC50 at AChE [2] was 17 µM.
For the molecule `O=C1CCSC(c2cccc(O)c2)N1CCN1CCCC1` (centres unmarked) [6o, 2-(3-hydroxyphenyl)-3-(2-(pyrrolidin-1-yl)ethyl)-1,3-thiazinan-4-one], on AChE [1], the IC50 is 25.7 µM and the “concentration from which AChE activity was inhibited, cerebral cortex” value was ≥ 25 µM. The IC50 on AChE [2] was 69.6 µM.
Take `COc1cccc(C2SCCC(=O)N2CCN2CCCC2)c1OC` (centres unmarked) [6p, 2-(2,3-dimethoxyphenyl)-3-(2-(pyrrolidin-1-yl)ethyl)-1,3-thiazinan-4-one]: on AChE [2] (disubstituted aryl, tissue not stated in the sentence (follows hippocampus results)), the “AChE inhibition activity (qualitative)” value is “decrease in activity”.
